ChEMBL document CHEMBL3739361, “Design, facile synthesis and anthelmintic activity of new O-substituted 6-methoxybenzothiazole-2-carbamates” (2015)

Legend:
Assay type in all cases: functional
Paramphistomum [1] = experiment: Antihelmintic activity against rumen flukes assessed as mortality at 40 ug/ml after 4 hrs relative to control
Paramphistomum [2] = experiment: Antihelmintic activity against rumen flukes assessed as mortality at 40 ug/ml after 2 hrs relative to control
Paramphistomum [3] = experiment: Antihelmintic activity against rumen flukes assessed as mortality at 80 ug/ml after 6 hrs relative to control
Paramphistomum [4] = experiment: Antihelmintic activity against rumen flukes assessed as mortality at 80 ug/ml after 2 hrs relative to control
Paramphistomum [5] = experiment: Antihelmintic activity against rumen flukes assessed as mortality at 40 ug/ml after 6 hrs relative to control
Paramphistomum [6] = experiment: Antihelmintic activity against rumen flukes assessed as mortality at 40 ug/ml after 1 hr relative to control
Paramphistomum [7] = experiment: Antihelmintic activity against rumen flukes assessed as mortality at 80 ug/ml after 1 hr relative to control
Paramphistomum [8] = experiment: Antihelmintic activity against rumen flukes assessed as mortality at 80 ug/ml after 4 hrs relative to control

**Q.** With COC(=O)Nc1nc2ccc(OCC(=O)N/N=C/c3ccc(Cl)cc3)cc2s1 (mixture of isomers) as the compound, how does the mortality at 40 µg/mL (Paramphistomum [1]) read?
**A.** 10%

**Q.** And the mortality at 40 µg/mL (Paramphistomum [2])?
**A.** 0%

**Q.** What about the mortality at 80 µg/mL (Paramphistomum [3]) of the same compound?
**A.** 60%

**Q.** And the mortality at 80 µg/mL (Paramphistomum [4])?
**A.** 30%

**Q.** What about the mortality at 40 µg/mL (Paramphistomum [5]) of the same compound?
**A.** 20%

**Q.** And the mortality at 40 µg/mL (Paramphistomum [6])?
**A.** 0%

**Q.** And the mortality at 80 µg/mL (Paramphistomum [7])?
**A.** 20%

**Q.** What about the mortality at 80 µg/mL (Paramphistomum [8]) of the same compound?
**A.** 50%

**Q.** Which results are given for COC(=O)Nc1nc2ccc(OCC(=O)N/N=C/c3ccccc3)cc2s1 (mixture of isomers)?
**A.** mortality at 40 µg/mL (Paramphistomum [1]): 10%; mortality at 40 µg/mL (Paramphistomum [2]): 10%; mortality at 80 µg/mL (Paramphistomum [3]): 40%; mortality at 80 µg/mL (Paramphistomum [4]): 20%; mortality at 40 µg/mL (Paramphistomum [5]): 20%; mortality at 40 µg/mL (Paramphistomum [6]): 10%; mortality at 80 µg/mL (Paramphistomum [7]): 10%; mortality at 80 µg/mL (Paramphistomum [8]): 20%

**Q.** For COC(=O)Nc1nc2ccc(OCC(=O)N/N=C/c3ccccc3OC(=O)OC)cc2s1 (mixture of isomers), which mortality at 40 µg/mL (Paramphistomum [1]) is on record?
**A.** 10%

**Q.** What about the mortality at 40 µg/mL (Paramphistomum [2]) of the same compound?
**A.** 10%

**Q.** What about the mortality at 80 µg/mL (Paramphistomum [3]) of the same compound?
**A.** 20%

**Q.** What about the mortality at 80 µg/mL (Paramphistomum [4]) of the same compound?
**A.** 20%

**Q.** What about the mortality at 40 µg/mL (Paramphistomum [5]) of the same compound?
**A.** 10%

**Q.** And the mortality at 40 µg/mL (Paramphistomum [6])?
**A.** 10%

**Q.** And the mortality at 80 µg/mL (Paramphistomum [7])?
**A.** 10%

**Q.** What about the mortality at 80 µg/mL (Paramphistomum [8]) of the same compound?
**A.** 20%

**Q.** Which mortality at 40 µg/mL (Paramphistomum [1]) does the source give for COC(=O)Nc1nc2ccc(OCC(=O)N/N=C(\C)c3ccccc3)cc2s1 (mixture of isomers) here?
**A.** 10%

**Q.** And the mortality at 40 µg/mL (Paramphistomum [2])?
**A.** 10%

**Q.** What about the mortality at 80 µg/mL (Paramphistomum [3]) of the same compound?
**A.** 30%

**Q.** And the mortality at 80 µg/mL (Paramphistomum [4])?
**A.** 20%

**Q.** What about the mortality at 40 µg/mL (Paramphistomum [5]) of the same compound?
**A.** 20%

**Q.** And the mortality at 40 µg/mL (Paramphistomum [6])?
**A.** 10%

**Q.** And the mortality at 80 µg/mL (Paramphistomum [7])?
**A.** 20%

**Q.** What about the mortality at 80 µg/mL (Paramphistomum [8]) of the same compound?
**A.** 20%

**Q.** COC(=O)Nc1nc2ccc(OCC(=O)N/N=C(\C)c3ccc(C)cc3)cc2s1 (mixture of isomers) was tested. Which mortality at 40 µg/mL (Paramphistomum [1]) did it give?
**A.** 10%

**Q.** What about the mortality at 40 µg/mL (Paramphistomum [2]) of the same compound?
**A.** 10%

**Q.** And the mortality at 80 µg/mL (Paramphistomum [3])?
**A.** 20%

**Q.** And the mortality at 80 µg/mL (Paramphistomum [4])?
**A.** 20%

**Q.** And the mortality at 40 µg/mL (Paramphistomum [5])?
**A.** 10%

**Q.** And the mortality at 40 µg/mL (Paramphistomum [6])?
**A.** 10%

**Q.** What about the mortality at 80 µg/mL (Paramphistomum [7]) of the same compound?
**A.** 20%

**Q.** And the mortality at 80 µg/mL (Paramphistomum [8])?
**A.** 20%

**Q.** For COC(=O)Nc1nc2ccc(OCC(=O)NNS(=O)(=O)c3ccccc3)cc2s1, which mortality at 40 µg/mL (Paramphistomum [1]) is on record?
**A.** 20%

**Q.** And the mortality at 40 µg/mL (Paramphistomum [2])?
**A.** 10%

**Q.** What about the mortality at 80 µg/mL (Paramphistomum [3]) of the same compound?
**A.** 50%

**Q.** What about the mortality at 80 µg/mL (Paramphistomum [4]) of the same compound?
**A.** 30%

**Q.** And the mortality at 40 µg/mL (Paramphistomum [5])?
**A.** 30%

**Q.** What about the mortality at 40 µg/mL (Paramphistomum [6]) of the same compound?
**A.** 10%

**Q.** What about the mortality at 80 µg/mL (Paramphistomum [7]) of the same compound?
**A.** 20%

**Q.** What about the mortality at 80 µg/mL (Paramphistomum [8]) of the same compound?
**A.** 40%

**Q.** What does the source list for COC(=O)Nc1nc2ccc(OCC(=O)NNS(=O)(=O)c3ccc(C)cc3)cc2s1?
**A.** mortality at 40 µg/mL (Paramphistomum [1]): 20%; mortality at 40 µg/mL (Paramphistomum [2]): 10%; mortality at 80 µg/mL (Paramphistomum [3]): 40%; mortality at 80 µg/mL (Paramphistomum [4]): 20%; mortality at 40 µg/mL (Paramphistomum [5]): 30%; mortality at 40 µg/mL (Paramphistomum [6]): 10%; mortality at 80 µg/mL (Paramphistomum [7]): 20%; mortality at 80 µg/mL (Paramphistomum [8]): 30%

**Q.** What does the source list for COC(=O)Nc1nc2ccc(OCC(=O)N/N=C/c3ccc([N+](=O)[O-])cc3)cc2s1 (mixture of isomers)?
**A.** mortality at 40 µg/mL (Paramphistomum [1]): 10%; mortality at 40 µg/mL (Paramphistomum [2]): 10%; mortality at 80 µg/mL (Paramphistomum [3]): 20%; mortality at 80 µg/mL (Paramphistomum [4]): 20%; mortality at 40 µg/mL (Paramphistomum [5]): 10%; mortality at 40 µg/mL (Paramphistomum [6]): 10%; mortality at 80 µg/mL (Paramphistomum [7]): 20%; mortality at 80 µg/mL (Paramphistomum [8]): 20%

**Q.** CC(=O)Nc1nc2ccc(OCC3=NN(C(C)=O)C(c4ccc([N+](=O)[O-])cc4)O3)cc2s1 (stereo not given) was tested. Which mortality at 40 µg/mL (Paramphistomum [1]) did it give?
**A.** 40%

**Q.** What about the mortality at 40 µg/mL (Paramphistomum [2]) of the same compound?
**A.** 30%

**Q.** And the mortality at 80 µg/mL (Paramphistomum [3])?
**A.** 100%

**Q.** And the mortality at 80 µg/mL (Paramphistomum [4])?
**A.** 50%

**Q.** And the mortality at 40 µg/mL (Paramphistomum [5])?
**A.** 70%

**Q.** And the mortality at 40 µg/mL (Paramphistomum [6])?
**A.** 10%

**Q.** And the mortality at 80 µg/mL (Paramphistomum [7])?
**A.** 20%

**Q.** And the mortality at 80 µg/mL (Paramphistomum [8])?
**A.** 70%

**Q.** With O=C(Nc1cc(Cl)cc(Cl)c1O)c1c(O)c(Cl)cc(Cl)c1Cl [OXYCLOZANIDE] as the compound, how does the mortality at 40 µg/mL (Paramphistomum [1]) read?
**A.** 100%

**Q.** And the mortality at 40 µg/mL (Paramphistomum [2])?
**A.** 70%

**Q.** What about the mortality at 80 µg/mL (Paramphistomum [4]) of the same compound?
**A.** 100%

**Q.** And the mortality at 40 µg/mL (Paramphistomum [6])?
**A.** 30%

**Q.** What about the mortality at 80 µg/mL (Paramphistomum [7]) of the same compound?
**A.** 50%

**Q.** How did the mortality at 40 µg/mL (Paramphistomum [1]) turn out when COC(=O)Nc1nc2ccc(OCC(=O)N/N=C/c3ccco3)cc2s1 was run?
**A.** 30%

**Q.** What about the mortality at 40 µg/mL (Paramphistomum [2]) of the same compound?
**A.** 20%

**Q.** And the mortality at 80 µg/mL (Paramphistomum [3])?
**A.** 70%

**Q.** What about the mortality at 80 µg/mL (Paramphistomum [4]) of the same compound?
**A.** 40%

**Q.** What about the mortality at 40 µg/mL (Paramphistomum [5]) of the same compound?
**A.** 40%

**Q.** What about the mortality at 40 µg/mL (Paramphistomum [6]) of the same compound?
**A.** 10%

**Q.** What about the mortality at 80 µg/mL (Paramphistomum [7]) of the same compound?
**A.** 30%

**Q.** And the mortality at 80 µg/mL (Paramphistomum [8])?
**A.** 60%

**Q.** With COC(=O)Nc1nc2ccc(OCC(=O)N/N=C(\C)c3ccc(Br)cc3)cc2s1 (mixture of isomers) as the compound, how does the mortality at 40 µg/mL (Paramphistomum [1]) read?
**A.** 10%

**Q.** What about the mortality at 40 µg/mL (Paramphistomum [2]) of the same compound?
**A.** 10%

**Q.** What about the mortality at 80 µg/mL (Paramphistomum [3]) of the same compound?
**A.** 30%

**Q.** What about the mortality at 80 µg/mL (Paramphistomum [4]) of the same compound?
**A.** 20%

**Q.** What about the mortality at 40 µg/mL (Paramphistomum [5]) of the same compound?
**A.** 10%

**Q.** What about the mortality at 40 µg/mL (Paramphistomum [6]) of the same compound?
**A.** 10%

**Q.** And the mortality at 80 µg/mL (Paramphistomum [7])?
**A.** 20%

**Q.** What about the mortality at 80 µg/mL (Paramphistomum [8]) of the same compound?
**A.** 30%

**Q.** Which results are given for COC(=O)Nc1nc2ccc(OCC(=O)N/N=C(\C)c3ccc(Cl)cc3)cc2s1 (mixture of isomers)?
**A.** mortality at 40 µg/mL (Paramphistomum [1]): 30%; mortality at 40 µg/mL (Paramphistomum [2]): 10%; mortality at 80 µg/mL (Paramphistomum [3]): 70%; mortality at 80 µg/mL (Paramphistomum [4]): 40%; mortality at 40 µg/mL (Paramphistomum [5]): 40%; mortality at 40 µg/mL (Paramphistomum [6]): 10%; mortality at 80 µg/mL (Paramphistomum [7]): 30%; mortality at 80 µg/mL (Paramphistomum [8]): 50%

**Q.** For CC(=O)Nc1nc2ccc(OCC3=NN(C(C)=O)C(c4ccccc4)O3)cc2s1 (stereo not given), which mortality at 40 µg/mL (Paramphistomum [1]) is on record?
**A.** 0%

**Q.** And the mortality at 40 µg/mL (Paramphistomum [2])?
**A.** 0%

**Q.** And the mortality at 80 µg/mL (Paramphistomum [3])?
**A.** 10%

**Q.** And the mortality at 80 µg/mL (Paramphistomum [4])?
**A.** 0%

**Q.** What about the mortality at 40 µg/mL (Paramphistomum [5]) of the same compound?
**A.** 0%

**Q.** And the mortality at 40 µg/mL (Paramphistomum [6])?
**A.** 0%

**Q.** And the mortality at 80 µg/mL (Paramphistomum [7])?
**A.** 0%

**Q.** And the mortality at 80 µg/mL (Paramphistomum [8])?
**A.** 10%

**Q.** Which results are given for CC(=O)Nc1nc2ccc(OCC3=NN(C(C)=O)C(c4ccc(Cl)cc4)O3)cc2s1 (stereo not given)?
**A.** mortality at 40 µg/mL (Paramphistomum [1]): 50%; mortality at 40 µg/mL (Paramphistomum [2]): 40%; mortality at 80 µg/mL (Paramphistomum [3]): 100%; mortality at 80 µg/mL (Paramphistomum [4]): 50%; mortality at 40 µg/mL (Paramphistomum [5]): 60%; mortality at 40 µg/mL (Paramphistomum [6]): 20%; mortality at 80 µg/mL (Paramphistomum [7]): 20%; mortality at 80 µg/mL (Paramphistomum [8]): 80%

**Q.** For COC(=O)NNC(=O)COc1ccc2nc(NC(=O)OC)sc2c1, which mortality at 40 µg/mL (Paramphistomum [1]) is on record?
**A.** 30%

**Q.** And the mortality at 40 µg/mL (Paramphistomum [2])?
**A.** 20%

**Q.** And the mortality at 80 µg/mL (Paramphistomum [3])?
**A.** 80%

**Q.** And the mortality at 80 µg/mL (Paramphistomum [4])?
**A.** 40%

**Q.** What about the mortality at 40 µg/mL (Paramphistomum [5]) of the same compound?
**A.** 40%

**Q.** What about the mortality at 40 µg/mL (Paramphistomum [6]) of the same compound?
**A.** 10%

**Q.** And the mortality at 80 µg/mL (Paramphistomum [7])?
**A.** 30%

**Q.** And the mortality at 80 µg/mL (Paramphistomum [8])?
**A.** 70%
